# Reference: ChEMBL document CHEMBL5346969 (J Med Chem, 2023)
# Active and inactive are the calls of the source. The rule behind the calls is not given here.
# Tests used:
# [1] = system: MDA-MB-231; experiment: Induction of ferroptosis in human MDA-MB-231 cells assessed as cell viability at 1 uM incubated for 72 hrs in presence of glutathione by MTT assay; assay type: functional, cell-based
# [2] = system: MDA-MB-231; experiment: Induction of ferroptosis-mediated morphological changes in human MDA-MB-231 cells assessed as increased membrane density at 20 nM incubated for 6 hrs by TEM analysis; assay type: functional, cell-based
# [3] = system: L02; experiment: Cytotoxicity against human L02 cells assessed as inhibition of cell viability at 1 uM incubated for 72 hrs by MTT assay; assay type: toxicity, cell-based; details: l02, 72 h
# [4] = system: MDA-MB-231; experiment: Induction of ferroptosis in human MDA-MB-231 cells assessed as increase in intracellular lipid peroxidase by measuring MDA content at 5 to 20 nM incubated for 8 hrs by C11-BODIPY-581/591 staining based flow cytometry analysis; assay type: functional, cell-based; details: dose 5-20 nM
# [5] = biological target: T1, Phospholipid hydroperoxide glutathione peroxidase GPX4 (Homo sapiens) (UniProt P36969); experiment: Inhibition of GPX4 (unknown origin) at 1 uM incubated for 1 hrs in presence of glutathione and glutathione reductase by microplate reader analysis
# T1 sequence (whole entry): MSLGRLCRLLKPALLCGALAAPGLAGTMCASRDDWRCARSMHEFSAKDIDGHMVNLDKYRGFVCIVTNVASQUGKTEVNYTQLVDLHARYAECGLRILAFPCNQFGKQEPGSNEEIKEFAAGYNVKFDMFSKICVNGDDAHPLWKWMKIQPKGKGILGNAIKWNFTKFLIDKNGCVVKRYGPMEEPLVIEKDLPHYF
# [6] = system: Hep 3B2; experiment: Antiproliferative activity against human Hep3B cells assessed as inhibition of cell viability at 1 uM incubated for 72 hrs by MTT assay; assay type: functional, cell-based
# [7] = system: MDA-MB-231; experiment: Induction of ferroptosis in human MDA-MB-231 cells with assessed as change in GPX4 protein expression level at 5 to 20 nM incubated for 8 hrs in presence of ferroptosis inhibitor, ferrostatin-1 by Western blot analysis; assay type: functional, cell-based; details: dose 5-20 nM
# [8] = system: MDA-MB-231; experiment: Induction of ferroptosis in human MDA-MB-231 cells assessed as cell viability at 1 uM incubated for 72 hrs in presence of ferroptosis inhibitor, ferrostatin-1 by MTT assay; assay type: functional, cell-based
# [9] = system: MDA-MB-231; experiment: Induction of ferroptosis in human MDA-MB-231 cells assessed as increase in intracellular Fe2+ level at 5 to 20 nM incubated for 8 hrs by FerroOrange staining based confocal laser microscopy; assay type: functional, cell-based; details: dose 5-20 nM
# [10] = Toxicity in immunodeficient BALB/c mouse xenografted with human MDA-MB-231 cells assessed as body weight change at 5 to 20 mg/kg, ip for 21 days; assay type: organism-based; details: in vivo, 504 h, dose 5-20 mg/kg, time 21 day
# [11] = system: 4T1; experiment: Antiproliferative activity against mouse 4T1 cells assessed as inhibition of cell viability at 1 uM incubated for 72 hrs by MTT assay; assay type: functional, cell-based
# [12] = system: MDA-MB-231; experiment: Induction of ferroptosis in human MDA-MB-231 cells assessed as increase in intracellular ROS accumulation by measuring green fluorescence intensity at 20 nM incubated for 8 hrs in presence of ferroptosis inhibitor, ferrostatin-1 by DCFH-DA staining based confocal laser microscopy; assay type: functional, cell-based
# [13] = system: MDA-MB-231; experiment: Induction of ferroptosis in human MDA-MB-231 cells assessed as cell viability incubated for 72 hrs in presence of necrosis inhibitor, necrostatin-1 by MTT assay; assay type: functional, cell-based; details: MDA-MB-231, 72 h
# [14] = system: MDA-MB-231; experiment: Antitumor activity against human MDA-MB-231 cells xenografted in immunodeficient BALB/c mouse assessed as tumor growth inhibition at 5 mg/kg,ip for 21 days consecutively every day; assay type: functional; details: MDA-MB-231, 504 h, time 21 day, read-out: TGI
# [15] = system: MDA-MB-231; experiment: Induction of ferroptosis in human MDA-MB-231 cells with assessed as change in FTH1 protein expression level at 5 to 20 nM incubated for 8 hrs in presence of ferroptosis inhibitor, ferrostatin-1 by Western blot analysis; assay type: functional, cell-based; details: dose 5-20 nM
# [16] = system: MDA-MB-231; experiment: Induction of ferroptosis in human MDA-MB-231 cells with assessed as decrease in FTH1 protein expression level at 5 to 20 nM incubated for 8 hrs by Western blot analysis; assay type: functional, cell-based; details: dose 5-20 nM
# [17] = Toxicity in immunodeficient BALB/c mouse assessed as change in AST level at 20 mg/kg, ip for 14 days by biochemical analysis; assay type: organism-based; details: in vivo, 336 h, time 14 day
# [18] = system: MDA-MB-231; experiment: Induction of ferroptosis in human MDA-MB-231 cells with assessed as decrease in intracellular GSH level at 20 nM incubated for 8 hrs by colorimetric assay; assay type: functional, cell-based
# [19] = Toxicity in immunodeficient BALB/c mouse xenografted with human MDA-MB-231 cells assessed as morphological changes in liver at 20 mg/kg, ip for 21 days by H and E staining based microscopy; assay type: organism-based; details: in vivo, 504 h, time 21 day
# [20] = system: MDA-MB-231; experiment: Induction of ferroptosis in human MDA-MB-231 cells assessed as cell viability incubated for 72 hrs in presence of autophagy inhibitor, 3-MA by MTT assay; assay type: functional, cell-based; details: MDA-MB-231, 72 h
# [21] = biological target: T2, Phospholipid hydroperoxide glutathione peroxidase GPX4 (Homo sapiens, UniProt P36969); experiment: Covalent inhibition of GPX4 (unknown origin) assessed as inhibition constant incubated for 30 to 90 mins in presence of glutathione, glutathione reductase and NADPH by microplate reader analysis
# T2 sequence (P36969 whole entry): T1 sequence (whole entry)
# [22] = Toxicity in immunodeficient BALB/c mouse assessed as change in BUN level at 20 mg/kg, ip for 14 days by biochemical analysis; assay type: organism-based; details: in vivo, 336 h, time 14 day
# [23] = system: MDA-MB-231; experiment: Induction of ferroptosis-mediated morphological changes in human MDA-MB-231 cells assessed as change in nuclear morphology at 20 nM incubated for 6 hrs by TEM analysis; assay type: functional, cell-based
# [24] = system: MDA-MB-231; experiment: Induction of ferroptosis in human MDA-MB-231 cells assessed as cell viability at 1 uM incubated for 72 hrs in presence of necrosis inhibitor, necrostatin-1 by MTT assay; assay type: functional, cell-based
# [25] = system: MDA-MB-231; experiment: Induction of ferroptosis in human MDA-MB-231 cells assessed as cell viability incubated for 72 hrs in presence of glutathione by MTT assay; assay type: functional, cell-based; details: MDA-MB-231, 72 h
# [26] = system: MDA-MB-231; experiment: Induction of ferroptosis-mediated morphological changes in human MDA-MB-231 cells assessed as decreased or absence of mitochondrial crests at 20 nM incubated for 6 hrs by TEM analysis; assay type: functional, cell-based
# [27] = system: MDA-MB-231; experiment: Induction of ferroptosis in human MDA-MB-231 cells assessed as cell viability incubated for 72 hrs in presence of deferoxamine by MTT assay; assay type: functional, cell-based; details: MDA-MB-231, 72 h
# [28] = Toxicity in immunodeficient BALB/c mouse xenografted with human MDA-MB-231 cells assessed as morphological changes in lung at 20 mg/kg, ip for 21 days by H and E staining based microscopy; assay type: organism-based; details: in vivo, 504 h, time 21 day
# [29] = system: MCF-10A; experiment: Cytotoxicity against human MCF-10A cells assessed as inhibition of cell viability at 1 uM incubated for 72 hrs by MTT assay; assay type: toxicity, cell-based
# [30] = system: MDA-MB-231; experiment: Induction of ferroptosis in human MDA-MB-231 cells assessed as increase in intracellular ROS accumulation by measuring green fluorescence intensity at 5 to 20 nM incubated for 8 hrs by DCFH-DA staining based confocal laser microscopy; assay type: functional, cell-based; details: dose 5-20 nM
# [31] = system: MDA-MB-468; experiment: Antiproliferative activity against human MDA-MB-468 cells assessed as inhibition of cell viability at 1 uM incubated for 72 hrs by CCK-8 assay; assay type: functional, cell-based
Compound,Activity [1],Activity [2],Activity [3],Activity [4],inhibition [5],Activity [6],Activity [7],Activity [8],Activity [9],Activity [10],Activity [11],Activity [12],IC50 [13],inhibition in vivo at 5 mg/kg [14],Activity [15],Activity [16],Activity [17],Activity [18],Activity [19],IC50 [20],further results
COc1cc(N(C(=O)CBr)c2ccc3c(c2)OCCO3)cc(OC)c1F,Active,Active,Non-Toxic,Dose-Dependent Effect,97.4%,inactive,inactive,Active,Active,Non-Toxic,Active,inactive,25 nM,18.9%,inactive,Active,Toxic,Active,Non-Toxic,18 nM,Ki [21]: 590 nM; Activity [22]: Toxic; Activity [23]: inactive; Activity [24]: inactive; IC50 [25]: > 20000 nM; Activity [26]: Active; IC50 [27]: 1850 nM; Activity [28]: Non-Toxic; Activity [29]: Non-Toxic; Activity [30]: Dose-Dependent Effect; Activity [31]: Active
COc1cc(N(C(=O)CCl)c2ccc3c(c2)OCCO3)cc(OC)c1F,Active,Active,Non-Toxic,Dose-Dependent Effect,98.8%,inactive,inactive,Active,Active,Non-Toxic,Active,inactive,22 nM,50.4%,inactive,Active,Toxic,Active,Non-Toxic,18 nM,Ki [21]: 630 nM; Activity [22]: Toxic; Activity [23]: inactive; Activity [24]: inactive; IC50 [25]: > 20000 nM; Activity [26]: Active; IC50 [27]: 2570 nM; Activity [28]: Non-Toxic; Activity [29]: Non-Toxic; Activity [30]: Dose-Dependent Effect; Activity [31]: Active
